Non-standard residues stand in square brackets, D forms with d. No end group written: not given here. Cit = NC(=O)NCCC[C@H](N)C(=O)O

The test system of the test is autoantibodies against cit-4 (anti-citrullinated SETDB1 antibody). Briefly: indirect ELISA of autoantibodies against biotin-conjugated citrullinated short polypeptides in serum. The format is binding, human. The protocol:
The autoantibody expression levels of the citrulline markers were detected using an indirect ELISA method. In short, biotin-conjugated short polypeptides were first coated onto PABC plates at a concentration of 50 ng/well. After coating, serum from 24 rheumatoid arthritis (RA) patients and 24 healthy subjects (HC) were diluted 10-fold as primary antibodies and incubated for 30 minutes. HRP-labeled goat anti-human IgG (GAH-HRP) was used as secondary antibody, incubation was performed for 30 minutes, and color development and reading were finally carried out.
The expression level of citrulline marker autoantibodies in patients with rheumatoid arthritis was detected using an indirect ELISA method (see Example 1 for details). In addition, anti-citrullinated peptide antibody (CCP2) was used as a control. […]
The cit-4 antibody level was detected in a CCP2-negative patient population using an indirect ELISA method (see Example 1 for details).
The levels of citrullinated SETDB1 autoantibodies in the serum of patients with different autoimmune diseases (RA rheumatoid arthritis, SLE systemic lupus erythematosus, PSS primary Sjögren's syndrome, and SSc scleroderma) were detected using an indirect ELISA method (see Example 1 for details). […]
In general terms: An ELISA detects its analyte on a solid surface through an enzyme-linked reagent.

As for “NPLLVPLLYDFXXMTAXXXVNXK (NPLLVPLLYDF[Cit][Cit]MTA[Cit][Cit][Cit]VN[Cit]K; also: conjugated with biotin) [cit-4]”, the “level of autoantibodies in rheumatoid arthritis” value (Example 1, Fig. 1A, serum of 24 RA patients vs 24 healthy subjects (HC), diluted 10-fold, peptide coated 50 ng/well, GAH-HRP secondary antibody) is listed as “significantly elevated”. For the same sequence, the “level of citrullinated SETDB1 autoantibodies” value (Example 4, Fig. 4A, serum of patients with different autoimmune diseases (RA, SLE, PSS, SSc)) is on record as “the highest in rheumatoid arthritis”.

The values are drawn from patent EP4759821A1, “CITRULLINATED SETDB1 POLYPEPTIDE AND USE THEREOF IN DIAGNOSIS OF RHEUMATOID ARTHRITIS” (Xiamen University, priority 2023, dated 2025).
